Source: patent publication US20240400546A1, “COMPOUNDS AND USES THEREOF” (JANSSEN PHARMACEUTICA NV, priority 2016, published 2024)

Each molecule was assayed against T1, SCD1 (Homo sapiens, UniProt O00767) (assay: Growth inhibition of humanized yeast expressing SCD1 as sole desaturase). Settings: humanized yeast expressing SCD1.
T1 construct: host or cells: S. cerevisiae ole1Δ strain, plasmid pRS316 with TDH3 promoter and CYC1 terminator
T1 sequence (O00767 1-359): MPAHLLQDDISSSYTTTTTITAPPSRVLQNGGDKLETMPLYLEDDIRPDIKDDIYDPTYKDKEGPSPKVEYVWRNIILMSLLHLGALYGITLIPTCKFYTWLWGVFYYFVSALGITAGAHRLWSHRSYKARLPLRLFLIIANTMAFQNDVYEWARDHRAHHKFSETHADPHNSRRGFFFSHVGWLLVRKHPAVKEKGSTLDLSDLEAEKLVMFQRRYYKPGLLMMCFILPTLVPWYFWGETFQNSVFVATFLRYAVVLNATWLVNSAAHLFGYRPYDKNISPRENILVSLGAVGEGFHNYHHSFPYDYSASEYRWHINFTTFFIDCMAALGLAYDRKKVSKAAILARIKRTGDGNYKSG
Assay type: cell-based
Experimental: Strain ole1Δ (yeast ole1 deletion mutant) was constructed by deleting OLE1 with NAT-MX6 in BY4741, amplifying the deletion cassette from the genomic DNA of the resulting strain with primers flanking the ORF by 1000 bp upstream and downstream, transforming the resulting deletion cassette into W303 pdr1Δ pdr3Δ, and plating transformants on YPD media containing G418 (200 μg/mL) and nourseothricin (100 μg/mL) with 0.01% TWEEN®-20 and 0.5 mM oleic and palmitoleic acids.
The coding sequence of yeast OLE1 was also cloned into this plasmid). These clones were then transformed into the ole1Δ strain and plated on CSM-Ura media (CSM lacking uracil) with 2% glucose (w/v) and independent colonies were isolated and amplified.
All compound profiling experiments were performed using the same basic protocol. Different genetic backgrounds (e.g., gene deletions) or conditions (e.g., addition of oleic and palmitoleic acid) were replaced as indicated below.
Yeast were cultured using standard techniques in complete synthetic media (CSM) and yeast nitrogen base supplemented with 2% (w/v) carbon source (glucose, raffinose, or galactose) to regulate the expression of the toxic disease protein. An initial starter culture was inoculated in 3 mL CSM-Glucose media and incubated overnight in a 30° C. shaker incubator (225 rpm). Saturated morning cultures were then diluted 1:20 in fresh CSM-Raffinose media and grown for 6 h to an OD600 (optical density) of ˜0.4-0.8 at 30° C. with shaking.
Compound administration was performed in two separate steps. First, 15 μL of CSM-Galactose (induces expression of toxic protein) was dispensed into clear 384 well assay plates using a MULTIDROP™ Combi reagent dispenser. […] The cultures described above were then diluted to a 2× concentration (0.03 and 0.08 for alpha-synuclein and ApoE, final OD600 of 0.015 and 0.04) in CSM-Galactose. For wild-type and Ole1/SCD1/SCD5 plasmid-containing strains, the 2× cell density was 0.02. […] For 96-well assays (FIGS. 1A and 1B), compound dilutions in DMSO were generated in 96 well plates and 1 μL was manually pipetted into 96 well clear bottom assay plates.
For experiments using a plasmid-borne copy of Ole1, SCD1, or SCD5 (FIGS. 3B, 6, and 7), media lacking uracil (SX-Ura, where X is glucose, raffinose, or galactose), was used for all steps of the compound profiling protocol to ensure its maintenance throughout the assay.
After yeast delivery, assay plates were incubated under humidified conditions at 30° C. for 24 to 40 h. ApoE4 rescue experiments were stopped at 24 h, aSyn experiments at 40 h, Ole1 at 24 h, and SCD1/SCD5 at 40 h. The growth of yeast was monitored by reading the OD600 of each well using a microplate reader (Perkin Elmer EnVision™).

Row | Structure (SMILES) | IC50
1 | COc1ccc(-c2noc(CCNC(=O)CNC(=O)c3ccccc3)n2)cc1OC [Compound 484] | > 45 µM
2 | O=C(CNC(=O)c1ccccc1)NCCc1nc(-c2ccccc2)no1 [Compound 485] | > 45 µM
3 | COc1ccc(-c2noc(CCNC(=O)COc3cc(O)c4c(c3)OC(C)(C)CC4=O)n2)cc1OC [Compound 486] | > 45 µM
4 | CC1(C)CC(=O)c2c(O)cc(OCC(=O)NCCc3nc(-c4ccccc4)no3)cc2O1 [Compound 487] | > 45 µM
5 | COc1ccc(-c2noc(C3CCNCC3)n2)cc1OC [Compound 488] | > 45 µM
6 | COc1cccc(-c2noc(C3CC(=O)N(c4ccc(C)c(C)c4)C3)n2)c1 (centres unmarked) [Compound 489] | 41 µM
7 | CCN1C(=O)COc2ccc(-c3noc(C4(c5ccc(OC)cc5)CC4)n3)cc21 [Compound 491] | > 45 µM
8 | CCN(Cc1nc(-c2ccc(OC)c(OC)c2)no1)C(=O)Cc1ccccc1 [Compound 492] | > 45 µM
9 | CCNCc1nc(-c2ccc3c(c2)N(CC)C(=O)CO3)no1 [Compound 493] | > 45 µM
10 | CCN(Cc1nc(-c2ccc3c(c2)N(CC)C(=O)CO3)no1)C(=O)Cc1cccc2ccccc12 [Compound 494] | > 45 µM

Same assay, conditions: humanized yeast expressing human SCD1

Row | Structure (SMILES) | IC50
11 | Cn1ncc2ccc(-c3noc(C4CCN(C(=O)OC(C)(C)C)CC4)n3)cc21 [Compound 359] | > 45 µM
12 | CC(C)(C)OC(=O)N1CCC(c2nc(-c3ccc4cnn(C5CC5)c4c3)no2)CC1 [Compound 360] | > 45 µM
13 | CCOC(=O)N1CCC(c2nc(-c3ccc4cnn(C(C)C)c4c3)no2)CC1 [Compound 361] | > 45 µM
14 | CC(C)n1ncc2ccc(-c3noc(N4CCN(C(=O)c5ccccc5)CC4)n3)cc21 [Compound 362] | > 45 µM
15 | CC(C)n1ncc2ccc(-c3noc(C4CCN(C(=O)c5ccc(Cl)cc5)CC4)n3)cc21 [Compound 363] | > 45 µM
16 | CC(C)n1ncc2ccc(-c3noc(N4CCN(C(=O)c5ccccc5Cl)CC4)n3)cc21 [Compound 364] | > 45 µM
17 | Cc1nn(C)c2cc(-c3noc(C4CN(C(=O)OC(C)(C)C)C4)n3)ccc12 [Compound 365] | > 45 µM
18 | CC(C)n1ncc2ccc(-c3noc(N4CCN(C(=O)CC5(C)CC5)CC4)n3)cc21 [Compound 495] | > 45 µM
19 | CC(C)n1ncc2ccc(-c3noc(N4C[C@H]5CN(C(=O)CC(C)(C)C)C[C@H]5C4)n3)cc21 [Compound 497] | > 45 µM
20 | CC(C)n1ncc2ccc(-c3noc([C@@H]4[C@@H]5CN(C(=O)OC(C)(C)C)C[C@@H]54)n3)cc21 [Compound 498] | > 45 µM
21 | CC(C)n1ncc2ccc(-c3nc(C4CCN(C(=O)c5ccccn5)CC4)no3)cc21 [Compound 499] | > 45 µM
22 | Cc1nn(C)c2cc(-c3noc(C4CCN(C(=O)CC5CN(C(=O)OC(C)(C)C)C5)CC4)n3)ccc12 [Compound 502] | > 45 µM
23 | Cc1nn(C)c2cc(-c3nsc(C4CCN(C(=O)OC(C)(C)C)CC4)n3)ccc12 [Compound 503] | > 45 µM
24 | CC(C)n1ncc2ccc(-c3nc(C4CCN(C(=O)c5ccc(Cl)cc5)CC4)no3)cc21 [Compound 505] | > 45 µM
25 | CC(C)n1ncc2ccc(-c3nc(C4CCN(C(=O)c5cccc(F)c5)CC4)no3)cc21 [Compound 506] | > 45 µM
26 | CC(C)OC(=O)N1CCC(c2nc(-c3ccc4oc(=O)n(C(C)C)c4c3)no2)CC1 [Compound 507] | > 45 µM
27 | CC(C)n1ncc2ccc(-c3noc(C4=C(F)CN(C(=O)OC(C)(C)C)CC4)n3)cc21 [Compound 510] | > 45 µM
28 | CC(C)n1ncc2ccc(-c3noc(C4CCN(C(=O)[C@@H]5CC(=O)N(c6cccc(C#N)c6)C5)CC4)n3)cc21 [Compound 528] | > 45 µM
29 | CC(C)n1ncc2ccc(-c3noc(C4CCN(C(=O)[C@H]5CC(=O)N(c6cccc(C#N)c6)C5)CC4)n3)cc21 [Compound 529] | > 45 µM
30 | CC(C)n1ncc2ccc(-c3noc(N4C[C@@H]5CNC[C@H]5C4)n3)cc21 [Compound 530] | > 45 µM
31 | CC(C)n1ncc2ccc(-c3noc(C4CCN(C(=O)c5ccccc5F)CC4)n3)cc21 [Compound 532] | > 45 µM
32 | CC(C)n1ncc2ccc(-c3noc(C4CCN(C(=O)c5ccc(Cl)cc5F)CC4)n3)cc21 [Compound 533] | > 45 µM
33 | CC(C)n1ncc2ccc(N3CC4(CCN(C(=O)c5ccccc5Cl)CC4)C3)cc21 [Compound 534] | > 45 µM
34 | CC(=O)N[C@H]1CC[C@H](c2nc(-c3ccc4cnn(C(C)C)c4c3)no2)CC1 [Compound 535] | > 45 µM
35 | CC(C)n1ncc2ccc(-c3noc([C@H]4CC[C@@H](N)CC4)n3)cc21 [Compound 536] | > 45 µM

Row | Structure (SMILES) | IC50
36 | CC(C)n1ncc2ccc(-c3noc([C@H]4CC[C@H](NC(=O)OC(C)(C)C)CC4)n3)cc21 [Compound 537] | > 45 µM
37 | CC(C)n1ncc2ccc(N3CC4(CCNCC4)C3)cc21 [Compound 538] | > 45 µM
38 | COc1ccc(S(=O)(=O)N2CCC(c3nc(-c4ccc5cnn(C(C)C)c5c4)no3)CC2)c(Br)c1 [Compound 539] | > 45 µM
39 | CC(C)n1ncc2ccc(-c3noc(C4CCN(S(=O)(=O)c5ccccc5Cl)CC4)n3)cc21 [Compound 540] | > 45 µM
40 | CC(C)n1ncc2ccc(-c3noc(C4CCN(C(=O)c5ccc(Cl)c(F)c5)CC4)n3)cc21 [Compound 541] | > 45 µM
41 | CC(C)n1ncc2ccc(-c3noc(C4CCN(C(=O)c5ccc(F)cc5)CC4)n3)cc21 [Compound 544] | > 45 µM
42 | Cn1ncc2ccc(-c3noc(N4CCN(C(=O)OC(C)(C)C)CC4)n3)cc21 [Compound 545] | > 45 µM
43 | CC(C)n1ncc2ccc(-c3nc(C4CCN(C(=O)CC5(C)CC5)CC4)no3)cc21 [Compound 546] | > 45 µM
44 | CC(C)n1ncc2ccc(-c3nc(N4CCN(C(=O)OC(C)(C)C)CC4)no3)cc21 [Compound 548] | > 45 µM
45 | CC(C)n1ncc2ccc(-c3noc(C4CCN(C(=O)c5nccs5)CC4)n3)cc21 [Compound 549] | > 45 µM
46 | COC(=O)N[C@H]1CC[C@@H](c2nc(-c3ccc4c(C)nn(C)c4c3)no2)CC1 [Compound 550] | > 45 µM
47 | CC(C)n1ncc2ccc(-c3noc(N4CC5(CCN(C(=O)OC(C)(C)C)CC5)C4)n3)cc21 [Compound 555] | > 45 µM
48 | CC(C)n1ncc2ccc(-c3noc(C4CCN(C(=O)CNC(=O)c5cccc(C#N)c5)CC4)n3)cc21 [Compound 556] | > 45 µM
49 | O=C(CC1CC1)N1CCC(c2nc(-c3ccc4cnn(C5COC5)c4c3)no2)CC1 [Compound 558] | > 45 µM
50 | CC1(CC(=O)N2CCC(c3nc(-c4ccc5cnn(C6COC6)c5c4)no3)CC2)CC1 [Compound 559] | > 45 µM
51 | CCc1cnc(N2CCC(c3nc(-c4ccc5c(C)nn(C)c5c4)no3)CC2)cn1 [Compound 560] | > 45 µM
52 | COC(=O)N1CCC(c2nc(-c3ccc4cnn(C(F)F)c4c3)no2)CC1 [Compound 561] | > 45 µM
53 | O=C(c1ccccc1Cl)N1CCC(c2nc(-c3ccc4cnn(C5COC5)c4c3)no2)CC1 [Compound 562] | > 45 µM
54 | O=C(c1ccccc1)N1CCC(c2nc(-c3ccc4cnn(C5COC5)c4c3)no2)CC1 [Compound 564] | > 45 µM
55 | CC(C)CS(=O)(=O)N1CCC(c2nc(-c3ccc4cnn(C(C)C)c4c3)no2)CC1 [Compound 565] | > 45 µM
56 | COC(=O)N1C[C@H]2CN(c3nc(-c4ccc5cnn(C(C)C)c5c4)no3)C[C@@H]2C1 [Compound 568] | > 45 µM
57 | CC(C)n1ncc2ccc(-c3noc(N4C[C@@H]5CN(C(=O)CC(C)(C)C)C[C@H]5C4)n3)cc21 [Compound 569] | > 45 µM
58 | COC(=O)N1CCC2(CC1)CN(c1nc(-c3ccc4cnn(C(C)C)c4c3)no1)C2 [Compound 570] | > 45 µM
59 | CC(=O)N1CCC2(CC1)CN(c1nc(-c3ccc4cnn(C(C)C)c4c3)no1)C2 [Compound 571] | > 45 µM
